Ends that are not written are not given here.
How the values were obtained:
[1] = system: Her2 receptor negative MDA-MB-231 cancer cells; test: In vitro cytotoxicity, MTT assay, 48 h, MDA-MB-231
Procedure: (§1) 68) to the antibody at the C-terminus by NRVRRS (SEQ. ID NO. 57) linker). Cytotoxicity was compared to a naked antibody (antibody without a lytic peptide) in Her-2 receptor positive cells (SKBR-3 and SKOV-3, human breast and ovarian cancer cells, respectively) and Her-2 receptor negative breast cancer cells (MDA-MB-231).
(§2) Cells were prepared in 96 well plates using 2,000 cells/well and were allowed to attach for 48 hours. […] All data were processed and analyzed using Graph Pad Prizm 4™ software (Graph Pad Prizm, Inc).

[2] = system: Her2 receptor positive SKBR-3 cancer cells; test: In vitro cytotoxicity, MTT assay, 48 h, SKBR-3
Procedure: as §1, §2

[3] = system: Her2 receptor positive SKOV-3 cancer cells; test: In vitro cytotoxicity, MTT assay, 48 h, SKOV-3
Procedure: as §1, §2

KFAKFAKKFAKFAKKFAK [Phor-18, KFAKFAK KFAKFAK KFAK]
very minimal non-specific cytotoxicity: cytotoxicity to MDA-MB-231 cells (in words) [1] | cytotoxicity to SKBR-3 cells (in words) [2] | cytotoxicity to SKOV-3 cells (in words) [3]
